Reference: ChEMBL document CHEMBL1201862, “PubChem BioAssay data set” (2004)
Active and inactive are the calls of the source.

Legend:
[1] = HPDE-C7 pancreatic duct cell viability loss – fluorescence, HTS (AID 430); format: functional, cell-based; conditions: Homo sapiens
[2] = viability loss of HPDE-C7K cells – cell-based, fluorescence, HTS, primary screen (AID 431); format: functional; conditions: Homo sapiens
[3] = viability of PTEN-deleted HCT116 cells – cell-based, HCT116 PTEN knockout, dose response (AID 1047); format: functional;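 note: HCT116 colon tumor cells with PTEN knocked out; cells exposed to compound for 60 hours before readout; potency for loss of cell viability measured by luminescence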
[4] = viability of HCT116 lacking mutant beta-catenin – cell-based, human colon tumor, dose response (AID 1045); format: functional;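 note: HCT116 colon tumor cells with beta catenin knocked out; cells exposed to compound for 60 hours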
[5] = HEK-293T cell viability reduction – luminescence, B-cell screen hits, cytotoxicity control for BCR NF-kB inhibitor project, dose response (AID 489021); format: functional, cell-based;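 note: HEK-293T cells carrying an NF-kB luciferase reporter; cells exposed to compound for about 14 hours before viability readout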
[6] = luciferase reporter signal suppression in cells – H4 neuroglioma cells, luminescence, dose response (AID 1990); format: functional, cell-based
Aminopeptidase N = target: T1, Aminopeptidase N (Plasmodium falciparum FcB1/Columbia, UniProt O96935); test: malaria alanyl aminopeptidase activity blockers – biochemical, fluorogenic H-Leu-NHMec substrate, 1536-well (AID 1445); parameters: species or system Plasmodium falciparum 3D7, 3D7
T1 sequence (O96935 whole entry): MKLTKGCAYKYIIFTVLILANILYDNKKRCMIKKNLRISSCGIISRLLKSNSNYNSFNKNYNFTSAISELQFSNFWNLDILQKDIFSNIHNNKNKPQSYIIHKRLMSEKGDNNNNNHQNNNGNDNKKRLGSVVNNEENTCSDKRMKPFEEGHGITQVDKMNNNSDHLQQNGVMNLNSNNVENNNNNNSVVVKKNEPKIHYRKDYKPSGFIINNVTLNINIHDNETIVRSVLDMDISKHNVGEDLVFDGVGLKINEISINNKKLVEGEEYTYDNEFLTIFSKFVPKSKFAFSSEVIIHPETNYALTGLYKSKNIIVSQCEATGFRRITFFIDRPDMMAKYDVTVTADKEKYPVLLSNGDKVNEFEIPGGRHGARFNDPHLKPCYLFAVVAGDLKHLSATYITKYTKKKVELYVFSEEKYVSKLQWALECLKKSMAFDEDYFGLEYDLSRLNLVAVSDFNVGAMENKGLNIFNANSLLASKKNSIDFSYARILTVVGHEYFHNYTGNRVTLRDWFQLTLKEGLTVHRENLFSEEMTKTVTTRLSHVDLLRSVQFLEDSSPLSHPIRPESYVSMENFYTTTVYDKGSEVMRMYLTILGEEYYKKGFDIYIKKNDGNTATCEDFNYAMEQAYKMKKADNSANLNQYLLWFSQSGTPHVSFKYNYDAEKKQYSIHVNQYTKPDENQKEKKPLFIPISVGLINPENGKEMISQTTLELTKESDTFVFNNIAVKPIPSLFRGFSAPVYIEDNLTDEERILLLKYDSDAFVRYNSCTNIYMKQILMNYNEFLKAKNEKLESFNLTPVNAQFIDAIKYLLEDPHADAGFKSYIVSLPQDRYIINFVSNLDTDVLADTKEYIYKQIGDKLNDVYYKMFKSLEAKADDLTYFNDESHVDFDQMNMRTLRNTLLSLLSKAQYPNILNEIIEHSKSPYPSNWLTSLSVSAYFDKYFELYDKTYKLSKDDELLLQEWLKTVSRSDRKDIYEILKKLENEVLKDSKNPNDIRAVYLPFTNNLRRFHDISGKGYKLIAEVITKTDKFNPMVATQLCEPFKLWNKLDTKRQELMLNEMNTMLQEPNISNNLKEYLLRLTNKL

[7] = Luminescence Cell-Based Dose Response HTS to Identify Inhibitors of 5'UTR Stem-Loop Driven Prion Protein mRNA Translation in H4 Neuroglioblastoma Cells. [Related pubchem assays: 1827 (Project Summary), 1813 (Primary HTS)]; format: functional
[8] = alpha-synuclein stem-loop luciferase translation blockers – H4 neuroglioma cells, luminescence, confirmation (AID 1988); format: functional, cell-based
[9] = target: T2, Replicative DNA helicase DnaB (Mycobacterium tuberculosis, UniProt P9WMR3); test: DnaB intein splicing inhibitors, dose response, biochemical, cell-free fluorescence (AID 449749); format: functional
T2 sequence (P9WMR3 whole entry): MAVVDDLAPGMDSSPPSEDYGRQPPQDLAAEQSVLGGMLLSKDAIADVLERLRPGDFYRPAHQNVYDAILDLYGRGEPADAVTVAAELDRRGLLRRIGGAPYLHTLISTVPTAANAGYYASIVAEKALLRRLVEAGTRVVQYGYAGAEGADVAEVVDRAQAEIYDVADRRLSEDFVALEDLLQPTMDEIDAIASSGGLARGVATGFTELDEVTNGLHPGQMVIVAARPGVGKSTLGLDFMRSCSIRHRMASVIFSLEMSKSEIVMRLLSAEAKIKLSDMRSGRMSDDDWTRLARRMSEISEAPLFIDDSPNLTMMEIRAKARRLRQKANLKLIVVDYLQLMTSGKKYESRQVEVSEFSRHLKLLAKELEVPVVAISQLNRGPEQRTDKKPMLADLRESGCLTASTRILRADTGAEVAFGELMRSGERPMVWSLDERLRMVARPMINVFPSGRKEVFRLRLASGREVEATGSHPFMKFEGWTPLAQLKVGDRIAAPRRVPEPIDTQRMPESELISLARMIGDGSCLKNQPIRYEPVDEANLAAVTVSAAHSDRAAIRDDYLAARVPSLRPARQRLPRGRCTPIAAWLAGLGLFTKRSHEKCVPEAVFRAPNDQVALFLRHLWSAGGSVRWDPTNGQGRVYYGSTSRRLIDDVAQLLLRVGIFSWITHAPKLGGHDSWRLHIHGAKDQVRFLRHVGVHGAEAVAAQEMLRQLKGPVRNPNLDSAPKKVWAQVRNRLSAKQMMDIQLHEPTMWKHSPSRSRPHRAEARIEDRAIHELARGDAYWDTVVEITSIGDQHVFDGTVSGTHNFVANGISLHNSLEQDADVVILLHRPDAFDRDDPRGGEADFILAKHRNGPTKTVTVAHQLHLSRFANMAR

Protein RecA = target: T3, Protein RecA (Mycobacterium tuberculosis, UniProt P9WHJ3); test: Fluorescence Cell-Free Homogeneous Dose Retest to Identify Inhibitors of RecA-Intein Splicing Activity. [Related pubchem assays (depositor defined):AID2097, AID2223, AID489010, AID492950]; format: functional
T3 sequence (P9WHJ3 whole entry): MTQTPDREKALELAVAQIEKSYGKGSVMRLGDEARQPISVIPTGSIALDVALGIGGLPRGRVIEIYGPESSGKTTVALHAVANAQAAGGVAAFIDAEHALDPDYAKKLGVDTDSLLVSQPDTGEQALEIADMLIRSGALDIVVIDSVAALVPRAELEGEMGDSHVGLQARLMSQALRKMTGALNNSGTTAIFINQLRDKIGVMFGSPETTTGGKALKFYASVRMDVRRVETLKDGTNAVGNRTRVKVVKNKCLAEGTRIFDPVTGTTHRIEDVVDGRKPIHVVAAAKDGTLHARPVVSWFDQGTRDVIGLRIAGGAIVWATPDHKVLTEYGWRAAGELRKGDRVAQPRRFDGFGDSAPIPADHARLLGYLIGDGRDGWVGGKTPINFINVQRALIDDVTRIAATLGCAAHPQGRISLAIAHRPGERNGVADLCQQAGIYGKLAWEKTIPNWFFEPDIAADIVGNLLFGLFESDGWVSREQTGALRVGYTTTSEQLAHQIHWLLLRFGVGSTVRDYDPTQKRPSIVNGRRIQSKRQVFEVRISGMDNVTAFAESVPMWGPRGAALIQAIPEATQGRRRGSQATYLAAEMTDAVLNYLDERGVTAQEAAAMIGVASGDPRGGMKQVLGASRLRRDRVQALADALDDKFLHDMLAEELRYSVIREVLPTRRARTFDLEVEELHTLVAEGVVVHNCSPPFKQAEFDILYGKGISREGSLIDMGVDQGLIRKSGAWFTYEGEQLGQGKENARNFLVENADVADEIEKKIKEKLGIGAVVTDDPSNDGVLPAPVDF

[10] = A cytotoxicity screen of small molecule inhibitors of the PhoP region in Salmonella typhi identified in the primary screen. [Related pubchem assays: 1850, 1864, 1985 ]; format: functional
Cytochrome P450 2D6 = Cytochrome P450 2D6 (Homo sapiens, UniProt P10635); test: qHTS Assay for Inhibitors and Substrates of Cytochrome P450 2D6. [Related pubchem assays: 410 ]; format: ADME; conditions: read-out: Potency
Cytochrome P450 3A4 = Cytochrome P450 3A4 (Homo sapiens, UniProt P08684); conditions: Potency;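 note: confirmatory qHTS run detecting inhibitors and substrates of CYP3A4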
[11] = target: Voltage-gated inwardly rectifying potassium channel KCNH2 (Homo sapiens, UniProt Q12809); test: concentration-dependent hERG rescue from blockers – cell-based, thallium flux, dose response (AID 2121); format: ADME
P388/ADR = test: cells; format: functional; conditions: Mus musculus
SN12K1 = test: cells; format: functional; conditions: Homo sapiens, SN12K1
P388 = test: cells; format: functional; conditions: Mus musculus, P388
Mucolipin-3 = target: T4, Mucolipin-3 (Homo sapiens, UniProt Q8TDD5); test: Dose response cell-based high-throughput screening assay for agonists of the transient receptor potential channel ML3 (TRPML3). [Related pubchem assays: 1526, 1424, 1448 ]; format: functional
T4 sequence (Q8TDD5 whole entry): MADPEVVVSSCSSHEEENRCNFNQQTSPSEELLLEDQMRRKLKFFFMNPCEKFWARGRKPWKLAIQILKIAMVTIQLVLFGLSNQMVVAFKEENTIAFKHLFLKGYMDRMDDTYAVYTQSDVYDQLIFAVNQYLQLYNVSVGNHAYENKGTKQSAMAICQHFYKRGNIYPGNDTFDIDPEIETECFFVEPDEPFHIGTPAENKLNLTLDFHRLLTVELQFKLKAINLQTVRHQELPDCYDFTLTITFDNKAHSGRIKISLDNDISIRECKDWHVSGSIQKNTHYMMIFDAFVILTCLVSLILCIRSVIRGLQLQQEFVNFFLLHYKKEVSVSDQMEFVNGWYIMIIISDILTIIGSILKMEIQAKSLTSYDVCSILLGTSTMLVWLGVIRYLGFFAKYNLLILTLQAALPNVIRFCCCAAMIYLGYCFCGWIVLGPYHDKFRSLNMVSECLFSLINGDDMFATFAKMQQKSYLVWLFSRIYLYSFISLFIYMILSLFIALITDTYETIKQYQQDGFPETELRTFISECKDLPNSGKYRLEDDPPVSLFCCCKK

[12] = target: T5, Calpain-2 catalytic subunit (Sus scrofa, UniProt P43367); test: m-calpain protease blockers, concentration series – biochemical, fluorogenic peptide substrate, dose response (AID 1420); format: functional
T5 sequence (P43367 whole entry): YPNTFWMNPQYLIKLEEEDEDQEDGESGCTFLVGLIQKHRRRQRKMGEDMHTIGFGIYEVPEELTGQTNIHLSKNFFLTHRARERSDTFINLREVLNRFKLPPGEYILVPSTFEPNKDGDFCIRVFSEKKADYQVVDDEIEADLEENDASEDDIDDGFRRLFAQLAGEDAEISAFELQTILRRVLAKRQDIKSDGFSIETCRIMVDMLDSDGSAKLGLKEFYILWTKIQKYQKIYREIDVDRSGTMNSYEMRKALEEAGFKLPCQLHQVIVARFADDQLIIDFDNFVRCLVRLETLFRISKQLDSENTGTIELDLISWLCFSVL

Ion channel NompC = Ion channel NompC (Danio rerio, UniProt Q7T1G6); test: Fluorescence counterscreen assay for TRPML3 agonists: dose response cell-based high-throughput screening assay to identify agonists of the transient receptor potential channel N1 (TRPN1). [Related pubchem assays: 1526, 1424, 1448 ]; format: functional
Large T antigen = Large T antigen (Simian virus 40, UniProt P03070); format: functional, Betapolyomavirus macacae;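 note: Confirmatory-stage PubChem screen for compounds that inhibit SV40 T antigen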
Sequence of Large T antigen (P03070 whole entry): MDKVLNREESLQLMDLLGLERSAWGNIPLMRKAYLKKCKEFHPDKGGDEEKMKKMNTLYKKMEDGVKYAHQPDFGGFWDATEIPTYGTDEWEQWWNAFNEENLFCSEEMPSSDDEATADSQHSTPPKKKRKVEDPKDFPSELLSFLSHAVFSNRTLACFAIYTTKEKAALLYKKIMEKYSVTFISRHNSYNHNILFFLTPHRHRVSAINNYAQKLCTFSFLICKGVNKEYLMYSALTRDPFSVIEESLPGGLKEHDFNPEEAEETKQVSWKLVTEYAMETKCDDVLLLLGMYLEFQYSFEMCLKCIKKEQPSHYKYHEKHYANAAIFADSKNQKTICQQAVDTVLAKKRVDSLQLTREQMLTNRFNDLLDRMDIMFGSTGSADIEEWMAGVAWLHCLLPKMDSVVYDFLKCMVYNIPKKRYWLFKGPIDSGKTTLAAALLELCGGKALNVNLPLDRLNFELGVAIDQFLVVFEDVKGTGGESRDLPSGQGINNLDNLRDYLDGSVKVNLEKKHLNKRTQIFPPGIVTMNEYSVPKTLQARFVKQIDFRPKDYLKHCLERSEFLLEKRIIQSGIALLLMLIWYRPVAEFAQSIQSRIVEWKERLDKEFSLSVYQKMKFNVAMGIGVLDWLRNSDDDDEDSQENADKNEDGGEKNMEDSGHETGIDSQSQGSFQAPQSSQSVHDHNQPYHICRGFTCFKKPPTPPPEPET

Sequence of Voltage-gated inwardly rectifying potassium channel KCNH2 (Q12809 whole entry): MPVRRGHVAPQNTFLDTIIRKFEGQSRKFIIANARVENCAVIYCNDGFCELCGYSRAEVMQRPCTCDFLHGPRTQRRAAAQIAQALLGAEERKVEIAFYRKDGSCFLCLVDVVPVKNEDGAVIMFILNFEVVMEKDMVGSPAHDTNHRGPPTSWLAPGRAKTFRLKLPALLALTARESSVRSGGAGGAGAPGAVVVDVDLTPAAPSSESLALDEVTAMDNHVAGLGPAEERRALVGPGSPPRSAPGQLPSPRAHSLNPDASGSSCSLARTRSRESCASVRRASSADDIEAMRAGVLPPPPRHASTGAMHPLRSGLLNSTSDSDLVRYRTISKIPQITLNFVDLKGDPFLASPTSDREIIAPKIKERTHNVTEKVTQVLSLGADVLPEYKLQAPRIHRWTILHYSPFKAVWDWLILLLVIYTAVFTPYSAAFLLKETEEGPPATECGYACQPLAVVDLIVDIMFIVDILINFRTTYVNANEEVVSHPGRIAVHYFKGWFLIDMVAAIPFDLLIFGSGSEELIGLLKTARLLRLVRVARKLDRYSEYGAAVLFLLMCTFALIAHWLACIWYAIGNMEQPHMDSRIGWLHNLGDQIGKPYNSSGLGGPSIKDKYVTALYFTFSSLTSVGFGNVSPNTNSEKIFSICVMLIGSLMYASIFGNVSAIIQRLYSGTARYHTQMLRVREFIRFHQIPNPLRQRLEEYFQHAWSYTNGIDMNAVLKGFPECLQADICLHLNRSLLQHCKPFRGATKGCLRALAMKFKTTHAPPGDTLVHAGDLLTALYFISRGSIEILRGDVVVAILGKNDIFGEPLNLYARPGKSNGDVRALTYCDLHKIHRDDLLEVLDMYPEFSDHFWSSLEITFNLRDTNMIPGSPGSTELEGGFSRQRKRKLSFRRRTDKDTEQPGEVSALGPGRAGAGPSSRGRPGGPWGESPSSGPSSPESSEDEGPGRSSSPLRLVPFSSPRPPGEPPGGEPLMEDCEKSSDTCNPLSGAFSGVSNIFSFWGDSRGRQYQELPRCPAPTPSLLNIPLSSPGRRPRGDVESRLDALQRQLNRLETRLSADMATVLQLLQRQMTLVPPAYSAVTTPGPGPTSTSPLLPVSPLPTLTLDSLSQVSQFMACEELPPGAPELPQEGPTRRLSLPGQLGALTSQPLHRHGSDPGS
Sequence of Cytochrome P450 2D6 (P10635 whole entry): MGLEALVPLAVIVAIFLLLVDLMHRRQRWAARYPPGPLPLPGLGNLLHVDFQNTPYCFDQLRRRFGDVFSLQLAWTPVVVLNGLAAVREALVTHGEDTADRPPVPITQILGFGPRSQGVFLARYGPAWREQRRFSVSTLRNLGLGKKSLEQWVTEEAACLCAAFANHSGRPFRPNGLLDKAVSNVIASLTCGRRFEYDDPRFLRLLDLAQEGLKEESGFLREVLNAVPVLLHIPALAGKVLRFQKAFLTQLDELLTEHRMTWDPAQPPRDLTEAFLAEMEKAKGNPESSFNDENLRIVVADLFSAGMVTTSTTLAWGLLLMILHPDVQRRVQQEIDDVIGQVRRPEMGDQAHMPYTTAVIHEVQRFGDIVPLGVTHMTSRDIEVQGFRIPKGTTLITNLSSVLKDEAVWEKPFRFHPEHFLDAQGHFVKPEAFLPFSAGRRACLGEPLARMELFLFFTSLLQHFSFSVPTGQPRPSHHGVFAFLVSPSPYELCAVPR
Sequence of Cytochrome P450 3A4 (P08684 whole entry): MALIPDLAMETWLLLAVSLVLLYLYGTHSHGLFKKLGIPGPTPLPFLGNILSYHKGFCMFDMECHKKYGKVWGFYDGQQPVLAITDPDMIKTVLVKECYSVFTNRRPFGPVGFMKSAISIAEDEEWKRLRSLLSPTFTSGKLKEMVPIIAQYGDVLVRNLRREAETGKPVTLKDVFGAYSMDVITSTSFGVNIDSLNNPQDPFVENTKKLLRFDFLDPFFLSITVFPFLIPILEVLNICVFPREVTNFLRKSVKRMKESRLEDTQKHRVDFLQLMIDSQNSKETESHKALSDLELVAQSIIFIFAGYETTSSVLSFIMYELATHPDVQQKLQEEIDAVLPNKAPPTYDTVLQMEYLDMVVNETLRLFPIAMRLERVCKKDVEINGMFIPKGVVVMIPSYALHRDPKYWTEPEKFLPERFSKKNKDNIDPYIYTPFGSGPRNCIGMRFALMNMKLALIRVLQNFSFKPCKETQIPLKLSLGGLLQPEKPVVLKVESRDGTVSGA
Sequence of Ion channel NompC (Q7T1G6 whole entry): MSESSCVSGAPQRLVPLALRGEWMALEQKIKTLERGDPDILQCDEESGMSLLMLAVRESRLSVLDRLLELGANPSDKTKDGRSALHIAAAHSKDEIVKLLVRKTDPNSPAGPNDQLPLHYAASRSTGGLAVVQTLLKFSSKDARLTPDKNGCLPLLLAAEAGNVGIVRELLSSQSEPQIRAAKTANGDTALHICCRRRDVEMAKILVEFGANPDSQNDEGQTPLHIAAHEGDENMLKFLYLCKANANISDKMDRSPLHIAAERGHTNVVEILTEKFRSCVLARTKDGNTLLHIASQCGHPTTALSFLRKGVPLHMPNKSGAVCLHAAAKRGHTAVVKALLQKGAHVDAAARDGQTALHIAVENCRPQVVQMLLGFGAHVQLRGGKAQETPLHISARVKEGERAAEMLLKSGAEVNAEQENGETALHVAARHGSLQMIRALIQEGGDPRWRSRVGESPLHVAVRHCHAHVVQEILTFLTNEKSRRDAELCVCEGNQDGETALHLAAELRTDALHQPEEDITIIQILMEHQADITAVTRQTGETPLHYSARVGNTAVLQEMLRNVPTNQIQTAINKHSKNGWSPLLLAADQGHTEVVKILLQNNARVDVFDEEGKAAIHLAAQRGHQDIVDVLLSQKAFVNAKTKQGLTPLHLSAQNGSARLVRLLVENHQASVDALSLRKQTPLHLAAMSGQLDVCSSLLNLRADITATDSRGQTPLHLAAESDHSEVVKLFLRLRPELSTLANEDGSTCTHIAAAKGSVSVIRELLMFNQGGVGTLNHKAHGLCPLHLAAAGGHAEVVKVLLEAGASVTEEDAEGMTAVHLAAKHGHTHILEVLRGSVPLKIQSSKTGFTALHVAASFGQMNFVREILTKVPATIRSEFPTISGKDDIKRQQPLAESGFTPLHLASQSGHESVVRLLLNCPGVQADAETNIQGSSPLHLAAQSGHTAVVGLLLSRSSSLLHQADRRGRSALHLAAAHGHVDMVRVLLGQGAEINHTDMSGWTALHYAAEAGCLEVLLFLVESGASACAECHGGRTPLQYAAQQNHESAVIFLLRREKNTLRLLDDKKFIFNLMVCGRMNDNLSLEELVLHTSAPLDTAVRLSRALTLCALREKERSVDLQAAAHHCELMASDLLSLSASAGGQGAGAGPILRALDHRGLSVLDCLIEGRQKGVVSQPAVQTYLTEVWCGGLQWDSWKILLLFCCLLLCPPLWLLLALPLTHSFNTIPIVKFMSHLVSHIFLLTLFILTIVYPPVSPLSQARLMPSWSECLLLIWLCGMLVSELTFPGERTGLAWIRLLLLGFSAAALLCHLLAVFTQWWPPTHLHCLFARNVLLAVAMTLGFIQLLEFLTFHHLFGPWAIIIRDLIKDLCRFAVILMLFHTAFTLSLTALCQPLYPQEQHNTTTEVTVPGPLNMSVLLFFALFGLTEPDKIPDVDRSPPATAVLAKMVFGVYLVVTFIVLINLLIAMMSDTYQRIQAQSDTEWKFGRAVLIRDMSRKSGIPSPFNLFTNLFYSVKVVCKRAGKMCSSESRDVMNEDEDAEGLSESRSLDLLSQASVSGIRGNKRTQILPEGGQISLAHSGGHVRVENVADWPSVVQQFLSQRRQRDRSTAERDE

CC1=CC(C)(C)Nc2ccc(OC(=O)c3ccco3)cc21
EC50 [1]: 7.05 µM (active) | EC50 [2]: 6.79 µM (active) | EC50 [3]: 7.39 µM (active) | EC50 [4]: 5.59 µM (active) | IC50 [5]: 44.7 µM (inactive)

CCOc1cc(/C=C(/C#N)C(=O)Nc2ccc(O)cc2)cc(Br)c1O
EC50 [6]: 9.71 µM (inconclusive) | IC50 (Aminopeptidase N): 78.7 µM (active) | EC50 [7]: 9.51 µM (active) | EC50 [8]: 7.65 µM (active) | AC50 [9]: > 380 µM (inactive) | EC50 (Protein RecA): 3.28 µM (active)

O=C1c2n[nH]c(-c3ccccc3O)c2C(c2ccc(F)cc2)N1CC1CCCO1 (configuration not stated)
EC50 [10]: > 50 µM (active)

OCC1OC(c2ccc3c(c2)OCO3)C=CC1Oc1ccc(C2CCCC2)cc1 (configuration not stated)
AC50 (Cytochrome P450 2D6): 3.16 µM (inconclusive) | AC50 (Cytochrome P450 3A4): 2 µM (inconclusive)

Cc1cccc(OCCSc2nnc(-c3ccoc3C)n2C)c1
EC50 [10]: > 50 µM (active)

CCCCCCCC/C=C\CCCCCCCC(=O)O [OLEIC ACID]
EC50 [11]: 10.4 µM (active) | GI50 (P388/ADR): 78.9 µM (inactive) | GI50 (SN12K1): 101 µM (inactive) | GI50 (P388): 115 µM (inactive)

COc1ccc2c(c1)C(C)CC(C)(C)N2C(=O)CSc1nc2ccccc2s1 (configuration not stated)
EC50 (Mucolipin-3): 2.63 µM (active) | IC50 [12]: 3.08 µM (not active) | EC50 (Ion channel NompC): > 29.9 µM (not active)

COc1ccccc1C(=O)Nc1nnc(-c2ccc(Cl)cc2)o1
EC50 [10]: > 50 µM (active)

COc1ccc(OC)c(C(c2c(O)oc3ccccc3c2=O)c2c(C)n(C)n(-c3ccccc3)c2=O)c1 (configuration not stated)
IC50 (Aminopeptidase N): 71 µM (active)

COc1cc(/C=C2\SC(=S)N(C(C(=O)O)c3ccccc3)C2=O)ccc1O (configuration not stated)
IC50 (Aminopeptidase N): 38.1 µM (active) | IC50 (Large T antigen): 11.6 µM (active)

OCCN1CCN(c2nc(-c3ccccc3)nc3c2oc2ccccc23)CC1
EC50 [1]: 7.2 µM (active) | EC50 [2]: 10.2 µM (active)

CCOC(=O)Cc1csc(NC(=S)NC(=O)c2ccc(Cl)cc2)n1
EC50 [11]: 0.55 µM (active) | IC50 [5]: > 80 µM (inactive)

COC(=O)c1sc2nc(-c3ccccc3)nc(N3CCN(C)CC3)c2c1C
EC50 [1]: > 20 µM (not active) | EC50 [2]: > 20 µM (not active)
